What was measured:
[1] = target: T1, Gonadotropin-releasing hormone receptor (Homo sapiens, UniProt P30968); experiment: (§1) Binding affinity at human GnRH receptor
T1 sequence (P30968 whole entry): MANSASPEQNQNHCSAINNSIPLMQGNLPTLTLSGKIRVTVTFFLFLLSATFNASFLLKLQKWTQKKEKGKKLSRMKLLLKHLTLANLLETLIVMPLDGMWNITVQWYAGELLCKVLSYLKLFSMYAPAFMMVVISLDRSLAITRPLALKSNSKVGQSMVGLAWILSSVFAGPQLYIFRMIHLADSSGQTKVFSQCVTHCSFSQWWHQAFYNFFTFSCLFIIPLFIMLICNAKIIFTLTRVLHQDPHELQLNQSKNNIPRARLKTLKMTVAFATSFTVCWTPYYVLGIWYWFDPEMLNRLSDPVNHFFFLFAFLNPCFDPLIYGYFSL

[2] = target: T1, Gonadotropin-releasing hormone receptor; experiment: Binding affinity at human GnRH receptor by calcium mobilization assay; type: functional
[3] = target: T2, Gonadotropin-releasing hormone receptor (Rattus norvegicus, UniProt P30969); experiment: Binding affinity at rat GnRH receptor
T2 sequence (P30969 whole entry): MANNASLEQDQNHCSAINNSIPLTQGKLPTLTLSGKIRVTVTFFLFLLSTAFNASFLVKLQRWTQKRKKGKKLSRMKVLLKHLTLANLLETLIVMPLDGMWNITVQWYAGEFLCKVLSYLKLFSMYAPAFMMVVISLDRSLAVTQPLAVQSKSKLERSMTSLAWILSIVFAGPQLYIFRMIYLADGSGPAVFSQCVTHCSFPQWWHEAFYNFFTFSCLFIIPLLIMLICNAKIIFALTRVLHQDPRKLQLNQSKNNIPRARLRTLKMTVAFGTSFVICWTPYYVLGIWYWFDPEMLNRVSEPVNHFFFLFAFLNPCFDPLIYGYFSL

[4] = target: T1, Gonadotropin-releasing hormone receptor; experiment: Binding affinity at human GnRH receptor by competition binding assay
[5] = system: Rhesus monkey; experiment: Suppression of circulating luteinizing hormone in monkey; type: functional, Macaca mulatta
[6] = Tmax in postmenopausal women at 5 to 200 mg, po; type: ADME, organism-based; conditions: female, human, in vivo
[7] = Half life in postmenopausal women at 5 to 200 mg, po; type: ADME, organism-based; conditions: female, human, in vivo
[8] = target: T2, Gonadotropin-releasing hormone receptor; experiment: Binding affinity at rat GnRH receptor by competition binding assay
[9] = system: Plasma; experiment: Protein binding in rat plasma; type: ADME, cell-free
[10] = target: T2, Gonadotropin-releasing hormone receptor; experiment: Antagonist activity at rat GnRH receptor assessed as luteinizing hormone release in rat pituitary cells; type: functional, cell-based, Pituitary gland cell; conditions: read-out: pA2 (converted)
[11] = system: Rattus norvegicus; experiment: Suppression of circulating luteinizing hormone in rat at 110 mg/kg, po relative to control; type: functional
[12] = Oral bioavailability in monkey; type: ADME, organism-based, Macaca mulatta; conditions: rhesus monkey, in vivo
[13] = target: T3, Gonadotropin-releasing hormone receptor (Homo sapiens) (UniProt P30968); experiment: as §1
T3 sequence (whole entry): T1 sequence (P30968 whole entry)

[14] = target: T4, Gonadotropin-releasing hormone receptor (Macaca mulatta, UniProt Q8SPZ1); experiment: Binding affinity at monkey GnRH receptor
T4 sequence (Q8SPZ1 whole entry): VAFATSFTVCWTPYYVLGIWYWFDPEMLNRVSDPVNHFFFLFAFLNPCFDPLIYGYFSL

[15] = target: T4, Gonadotropin-releasing hormone receptor; experiment: Activity at rhesus monkey GnRH receptor by inositol phosphate functional assay
[16] = Oral bioavailability in rat; type: ADME, organism-based; conditions: in vivo
[17] = Binding affinity at cynomolgus monkey GnRH receptor expressed in CHO cells; type: cell-based, Macaca fascicularis
[18] = Activity at cynomolgus monkey GnRH receptor expressed in CHO cells assessed as inhibition of arachidonic acid release; type: cell-based; conditions: Macaca fascicularis
[19] = Inhibition of circulating luteinizing hormone in cynomolgus monkey pituitary cells; type: functional, Macaca fascicularis, Pituitary gland cell
[20] = system: Cynomolgus monkey; experiment: Suppression of circulating luteinizing hormone in cynomolgus monkey at 10 mg/kg, po relative to baseline; type: functional, Macaca fascicularis
[21] = system: Cynomolgus monkey; experiment: Suppression of circulating luteinizing hormone in cynomolgus monkey at 30 mg/kg, po relative to baseline; type: functional, Macaca fascicularis
[22] = AUC (0 to 6 hrs) in cynomolgus monkey at 10 mg/kg, po; type: ADME, organism-based, Macaca fascicularis; design: time < 6 hr, dose 10 mg/kg, route oral; conditions: plasma
[23] = Cmax in healthy male human at 10 mg; type: ADME, organism-based; design: dose 10 mg; conditions: in vivo
[24] = AUC (0 to 8 hrs) in healthy male human at 10 mg; type: ADME, organism-based; design: dose 10 mg, time < 8 hr; conditions: plasma
[25] = Cmax in healthy male human at 200 mg; type: ADME, organism-based; design: dose 200 mg; conditions: in vivo
[26] = AUC (0 to 8 hrs) in healthy male human at 200 mg; type: ADME, organism-based; design: dose 200 mg, time < 8 hr; conditions: plasma
[27] = target: 5-hydroxytryptamine receptor 2B (Homo sapiens) (UniProt P41595); experiment: Binding affinity to 5HT2B receptor
Sequence of 5-hydroxytryptamine receptor 2B (Homo sapiens) (P41595 whole entry): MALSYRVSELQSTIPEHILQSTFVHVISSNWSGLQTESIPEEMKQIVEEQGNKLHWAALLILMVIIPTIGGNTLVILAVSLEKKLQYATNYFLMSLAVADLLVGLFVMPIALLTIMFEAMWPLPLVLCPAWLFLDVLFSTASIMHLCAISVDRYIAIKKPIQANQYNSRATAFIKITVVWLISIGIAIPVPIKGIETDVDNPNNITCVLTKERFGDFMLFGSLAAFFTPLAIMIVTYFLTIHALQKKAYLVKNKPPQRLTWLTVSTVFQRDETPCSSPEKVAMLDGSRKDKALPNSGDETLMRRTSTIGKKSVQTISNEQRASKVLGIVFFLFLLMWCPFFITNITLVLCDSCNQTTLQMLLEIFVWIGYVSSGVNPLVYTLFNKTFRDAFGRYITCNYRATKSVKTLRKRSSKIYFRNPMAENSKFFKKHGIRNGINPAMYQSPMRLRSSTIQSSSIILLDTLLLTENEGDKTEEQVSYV

[28] = Binding affinity to alpha1 adrenergic receptor
[29] = target: T2, Gonadotropin-releasing hormone receptor; experiment: Binding affinity at rat GnRH receptor by whole cell binding assay

## N[C@@H](Cn1c(=O)c(-c2ccccc2F)c2n(c1=O)C(c1ccccc1F)CS2)c1ccccc1 (stereo partly drawn)
[1]
  Ki: 220 nM

## CCSc1nc2cc(S(=O)(=O)NCc3ccccc3OC)ccc2n1Cc1ccccc1
[2]
  IC50: 3400 nM

## COc1cccc(-c2c3n(c(=O)n(C[C@H](N)c4ccccc4)c2=O)C(c2ccccc2F)CS3)c1Cl (stereo partly drawn)
[1]
  Ki: 4.5 nM

## COc1cccc(-c2nn(Cc3c(F)cccc3C(F)(F)F)c(=O)n(C[C@H](N)c3ccccc3)c2=O)c1F
[1]
  Ki: 13 nM

## Cc1cc(C)cc(-c2[nH]c3c(c2[C@H](C)CNCCc2ccc(-c4nnn[nH]4)cc2)CN(C(=O)Cc2c(F)cccc2C(F)(F)F)CC3)c1
[3]
  IC50: 0.2 nM

## COc1cccc(-c2nn(Cc3c(F)cccc3C(F)(F)F)c(=O)n(C[C@H](N)c3ccccc3)c2=O)c1Cl
[1]
  Ki: 2.3 nM

## CC(C)(C)c1ccc(-c2nc3c(N4CCN(Cc5ccnc(S(C)(=O)=O)n5)CC4)cccc3[nH]2)cc1
[4]
  IC50: 5.2 nM

## CCc1nc(C)c(CN2CCN(c3cccc4[nH]c(-c5ccc(C(C)(C)C)cc5)nc34)CC2)[nH]1
[4]
  IC50: 6.6 nM

## COc1cccc(-c2c(C)n(Cc3c(F)cccc3F)c(=O)n(C[C@H](C)N(C)CCc3ccccn3)c2=O)c1
[1]
  Ki: 470 nM

## CCSc1nc2cc(NC(=O)C3CC3)ccc2n1C(C)C
[2]
  IC50: 10000 nM

## FC(F)(F)c1nc2c(N3CCN(CCOc4cccc5[nH]c(=S)[nH]c45)CC3)cccc2[nH]1
[4]
  IC50: 800 nM

## N[C@@H](Cn1c(=O)c(Cc2c(F)cccc2F)nn(-c2ccccc2F)c1=O)c1ccccc1
[1]
  Ki: 580 nM

## COc1cccc(-c2c(C)n(Cc3c(F)cccc3F)c(=O)n(C[C@H](N)c3ccccc3)c2=O)c1F
[5]
  Activity: 32%
[6]
  Tmax: 0.4 h
[7]
  half-life: 2.7 h

## N[C@@H](Cn1c(=O)c(-c2ccccc2F)c2n(c1=O)C(c1ccccc1)CS2)c1ccccc1 (stereo partly drawn)
[1]
  Ki: 230 nM

## COc1cccc(-c2c(C)n(Cc3c(F)cccc3C(F)(F)F)c(=O)n(C[C@H](N)c3ccccc3)c2=O)c1F
[1]
  Ki: 0.5 nM

## COc1cccc(-c2c(C)n(Cc3c(F)cccc3F)c(=O)n(CC(C)(N)c3ccccc3)c2=O)c1F (stereo not drawn)
[1]
  Ki: 23 nM

## COc1cccc(-c2c(C)n(Cc3c(F)cccc3[S+](C)[O-])c(=O)n(C[C@H](N)c3ccccc3)c2=O)c1F (stereo partly drawn)
[1]
  Ki: 4.4 nM

## COc1cc(OC)c(NC(=O)c2ccc(Cc3cc4c(cc3C)C(C)(C)CCC4(C)C)o2)c(OC)c1
[8]
  Ki: 3.8 nM
[9]
  Activity: 99.9%

## CC[C@H]1OC(=O)[C@H](C)[C@@H](OC(=O)N2C(=O)OC[C@@H]2C)[C@H](C)[C@@H](O[C@@H]2O[C@H](C)C[C@H](N(C)CC3CC3)[C@H]2O)[C@@](C)(OC)C[C@@H](C)C(=O)[C@H](C)[C@H]2N(CCc3ccc(Cl)c(Cl)c3)C(=O)O[C@]12C
[10]
  Kb: 1.58 nM
[11]
  Activity: 20%

## N[C@@H](Cn1c(=O)c(-c2ccccc2F)c2n(c1=O)C(c1ccccc1F)CO2)c1ccccc1 (stereo partly drawn)
[1]
  Ki: 230 nM

## CN[C@@H](Cc1ccccc1)Cn1c(=O)c(-c2cccc(OC)c2F)c(C)n(Cc2c(F)cccc2F)c1=O
[12]
  bioavailability: 22%

## Cc1c(-c2ccccc2F)c(=O)n(C[C@H](N)c2ccccc2)c(=O)n1Cc1ccccc1F
[1]
  Ki: 19 nM

## COc1cccc(-c2c3n(c(=O)n(C[C@H](N)c4ccccc4)c2=O)C(c2ccccc2F)CS3)c1F (stereo partly drawn)
[1]
  Ki: 40 nM

## N[C@@H](Cn1c(=O)c(-c2ccccc2F)c2n(c1=O)[C@@H](c1ccccc1)CS2)c1ccccc1
[1]
  Ki: 110 nM

## CC(C)(C)NC(=O)NCCc1nc2cc(S(=O)(=O)NCc3ccc(Cl)cc3)ccc2n1Cc1ccccc1
[2]
  IC50: < 10 nM

## Cc1cc(-c2c(OCC[C@@H]3CCN3)c3cc(C(=O)Nc4ccncn4)c(Cl)cc3[nH]c2=O)cc(C)c1C
[13]
  Activity: 0.4 nM
[14]
  Ki: 0.5 nM
[15]
  IC50: 7 nM

## COc1cccc(-n2c(=O)c(Cc3c(F)cccc3F)nn(C[C@H](N)c3ccccc3)c2=O)c1
[1]
  Ki: 110 nM

## CSc1ccc(CN2CCc3c(c(=O)n(CCN(C)CCc4ccccn4)c(=O)n3Cc3c(F)cccc3F)C2)cc1
[1]
  Ki: 15 nM

## CCn1cc(CN2CCN(c3cccc4[nH]c(-c5ccc(C(C)(C)C)cc5)nc34)CC2)c(=O)[nH]c1=O
[4]
  IC50: 1.6 nM
[16]
  bioavailability: 72%
[8]
  IC50: 18 nM

## CONC(=O)Nc1ccc(-c2sc3c(c2CN(C)Cc2ccccc2)c(=O)n(-c2ccccc2)c(=O)n3Cc2c(F)cccc2F)cc1 [SUFUGOLIX]
[17]
  IC50: 0.6 nM
[18]
  IC50: 10 nM
[19]
  Activity: 36 nM
[20]
  Activity: 18%
[21]
  Activity: 11%
[22]
  AUC(0-t) at 6 h: 0.85 µM·h
[23]
  Cmax: 15 ng/mL
[24]
  AUC(0-t) at 8 h: 173 ng·h/mL
[25]
  Cmax: 274 ng/mL
[26]
  AUC(0-t) at 8 h: 2560 ng·h/mL

## CCCn1c(SCc2cc([N+](=O)[O-])ccc2OC)nc2cc(NC(=O)NC(C)(C)C)cc(C(=O)NC)c21
[2]
  IC50: 41000 nM

## Cc1cc(C)cc(-c2[nH]c3ccc(C(C)(C)C(=O)N4CC5CCC4CC5)cc3c2[C@H](C)CNCCc2ccncc2)c1
[27]
  Activity: 165 nM
[28]
  Activity: 114 nM
[29]
  IC50: 1.7 nM

## C=C1C(Cl)=CC=C1c1c(C)n(Cc2c(F)cccc2F)c(=O)n(C[C@H](N)c2ccccc2)c1=O
[1]
  Ki: 14 nM

## COc1cccc(-c2c(C)n(Cc3c(F)cccc3S(C)(=O)=O)c(=O)n(C[C@H](N)c3ccccc3)c2=O)c1F
[1]
  Ki: 0.2 nM

From ChEMBL document CHEMBL1150279, “Non-peptide gonadotropin-releasing hormone receptor antagonists” (J Med Chem, 2008)
